Test results from US20130196927A1, “Smac Mimetic Therapy” (priority 2012, published 2013).

Target: T1, GFP-tagged cIAP-2 (Homo sapiens, UniProt Q13489)
T1 construct: expressed in transfected cells
Assay: GFP-tagged cIAP-2 degradation assay (loss of GFP signal)
Type: cell-based
Settings: GFP-cIAP expressing melanoma cell line A375, treatment for two hours; read-out: IC50 for GFP-tagged cIAP-2 degradation
From the text: To evaluate the Smac-mimetic activity in cancer cell lines, we have developed intra-cellular green fluorescence protein (GFP)-tagged cIAP-1 and GFP-tagged cIAP-2 assays. […].

T1 sequence (Q13489 whole entry): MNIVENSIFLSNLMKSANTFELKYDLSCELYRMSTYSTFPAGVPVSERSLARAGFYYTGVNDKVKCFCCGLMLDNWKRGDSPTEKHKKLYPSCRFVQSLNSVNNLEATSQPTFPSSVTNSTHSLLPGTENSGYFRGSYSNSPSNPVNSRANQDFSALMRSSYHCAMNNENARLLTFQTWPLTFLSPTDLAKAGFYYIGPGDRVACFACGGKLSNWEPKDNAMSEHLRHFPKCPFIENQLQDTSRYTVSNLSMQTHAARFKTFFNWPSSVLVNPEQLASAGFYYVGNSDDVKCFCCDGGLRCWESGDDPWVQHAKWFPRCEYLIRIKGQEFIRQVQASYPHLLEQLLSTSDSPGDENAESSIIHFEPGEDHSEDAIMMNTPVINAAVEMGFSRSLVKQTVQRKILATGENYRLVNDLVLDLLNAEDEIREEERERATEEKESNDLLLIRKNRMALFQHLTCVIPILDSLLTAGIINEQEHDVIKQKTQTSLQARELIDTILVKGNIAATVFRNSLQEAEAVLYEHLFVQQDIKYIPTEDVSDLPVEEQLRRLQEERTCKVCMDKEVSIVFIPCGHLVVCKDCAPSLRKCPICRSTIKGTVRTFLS

DC50: 150 nM
Structure (SMILES): CC[C@H](NC(=O)[C@H](C)NC)C(=O)N1C[C@@H](O)C[C@H]1Cc1c(-c2[nH]c3cc(F)ccc3c2C[C@@H]2C[C@H](O)CN2C(=O)[C@H](CC)NC(=O)[C@H](C)NC)[nH]c2cc(F)ccc12 [Compound 15, birinapant]
